Laboratory results reported in ChEMBL document CHEMBL1671734, “An ertapenem-resistant extended-spectrum-beta-lactamase-producing Klebsiella pneumoniae clone carries a novel OmpK36 porin variant” (2010).
≈ marks a conversion by molar mass, not a printed value.

Tests used:
Format in all cases: functional
[1] = system: Klebsiella pneumoniae; assay: Antimicrobial activity against ESBL-positive Klebsiella pneumoniae 6267 harboring porin OmpK36V mutant gene by microdilution method
[2] = system: Klebsiella pneumoniae; assay: Antimicrobial activity against ESBL-positive Klebsiella pneumoniae 17049 harboring porin OmpK36V mutant gene by microdilution method
[3] = system: Klebsiella pneumoniae; assay: Antimicrobial activity against ESBL-positive Klebsiella pneumoniae 19039 harboring porin OmpK36V mutant gene by microdilution method
[4] = system: Klebsiella pneumoniae; assay: Antimicrobial activity against ESBL-positive Klebsiella pneumoniae 17830 harboring porin OmpK36V mutant gene by microdilution method
[5] = system: Klebsiella pneumoniae; assay: Antimicrobial activity against ESBL-positive Klebsiella pneumoniae 17829 harboring pSHA2-encoded porin OmpK36 gene by microdilution method
[6] = system: Klebsiella pneumoniae; assay: Antimicrobial activity against ESBL-negative Klebsiella pneumoniae 299332 harboring porin OmpK36 gene by microdilution method
[7] = system: Klebsiella pneumoniae; assay: Antimicrobial activity against ESBL-positive Klebsiella pneumoniae 17834 harboring porin OmpK36V mutant gene by microdilution method
[8] = system: Klebsiella pneumoniae; assay: Antimicrobial activity against ESBL-positive Klebsiella pneumoniae 18567 harboring porin OmpK36V mutant gene by microdilution method
[9] = system: Klebsiella pneumoniae; assay: Antimicrobial activity against ESBL-negative Klebsiella pneumoniae 30018 harboring porin OmpK35 gene by microdilution method
[10] = system: Klebsiella pneumoniae; assay: Antimicrobial activity against ESBL-positive Klebsiella pneumoniae 31750 harboring porin OmpK36 gene by microdilution method
[11] = system: Klebsiella pneumoniae; assay: Antimicrobial activity against ESBL-positive Klebsiella pneumoniae 17829 by microdilution method
[12] = system: Klebsiella pneumoniae; assay: Antimicrobial activity against ESBL-positive Klebsiella pneumoniae 29830 harboring porin OmpK36V mutant gene by microdilution method
[13] = system: Klebsiella pneumoniae; assay: Antimicrobial activity against ESBL-positive Klebsiella pneumoniae 18260 by microdilution method
[14] = system: Klebsiella pneumoniae; assay: Antimicrobial activity against ESBL-positive Klebsiella pneumoniae 287942 harboring porin OmpK36 gene by microdilution method
[15] = system: Klebsiella pneumoniae; assay: Antimicrobial activity against ESBL-positive Klebsiella pneumoniae 69036 harboring porin OmpK36V mutant gene by microdilution method
[16] = system: Klebsiella pneumoniae; assay: Antimicrobial activity against ESBL-positive Klebsiella pneumoniae 71697 harboring porin OmpK36V mutant gene by microdilution method
[17] = system: Klebsiella pneumoniae; assay: Antimicrobial activity against ESBL-positive Klebsiella pneumoniae 16855 harboring porin OmpK36 and OmpK35 genes by Etest by microdilution method
[18] = system: Klebsiella pneumoniae; assay: Antimicrobial activity against ESBL-positive Klebsiella pneumoniae 18918 harboring porin OmpK36V mutant gene by microdilution method
[19] = system: Klebsiella pneumoniae; assay: Antimicrobial activity against ESBL-positive Klebsiella pneumoniae 18260 harboring pSHA2-encoded porin OmpK36 gene by microdilution method
[20] = system: Klebsiella pneumoniae; assay: Antimicrobial activity against ESBL-positive Klebsiella pneumoniae 50748 harboring porin OmpK36 gene by microdilution method
[21] = system: Klebsiella pneumoniae; assay: Antimicrobial activity against ESBL-positive Klebsiella pneumoniae 69928 harboring porin OmpK36V mutant gene by microdilution method
[22] = system: Klebsiella pneumoniae; assay: Antimicrobial activity against ESBL-positive Klebsiella pneumoniae 25008 by microdilution method
[23] = system: Klebsiella pneumoniae; assay: Antimicrobial activity against ESBL-positive Klebsiella pneumoniae 29459 harboring porin OmpK36 gene by microdilution method
[24] = system: Klebsiella pneumoniae; assay: Antimicrobial activity against ESBL-positive Klebsiella pneumoniae 16830 harboring porin OmpK36 gene by microdilution method
[25] = system: Klebsiella pneumoniae; assay: Antimicrobial activity against ESBL-positive Klebsiella pneumoniae 26077 harboring porin OmpK36V mutant gene by microdilution method
[26] = system: Klebsiella pneumoniae; assay: Antimicrobial activity against ESBL-positive Klebsiella pneumoniae 11932 harboring porin OmpK36 gene by microdilution method
[27] = system: Klebsiella pneumoniae; assay: Antimicrobial activity against ESBL-positive Klebsiella pneumoniae 17834 harboring porin OmpK36V mutant gene by Etest in presence of Tazobactam
[28] = system: Klebsiella pneumoniae; assay: Antimicrobial activity against ESBL-positive Klebsiella pneumoniae 18918 harboring porin OmpK36V mutant gene by Etest in presence of Tazobactam
[29] = system: Klebsiella pneumoniae; assay: Antimicrobial activity against ESBL-positive Klebsiella pneumoniae 69036 harboring porin OmpK36V mutant gene by Etest in presence of Tazobactam
[30] = system: Klebsiella pneumoniae; assay: Antimicrobial activity against ESBL-positive Klebsiella pneumoniae 18567 harboring porin OmpK36V mutant gene by Etest in presence of Tazobactam
[31] = system: Klebsiella pneumoniae; assay: Antimicrobial activity against ESBL-positive Klebsiella pneumoniae 16855 harboring porin OmpK36 and OmpK35 genes by Etest in presence of Tazobactam
[32] = system: Klebsiella pneumoniae; assay: Antimicrobial activity against ESBL-positive Klebsiella pneumoniae 17830 harboring porin OmpK36V mutant gene by Etest in presence of Tazobactam
[33] = system: Klebsiella pneumoniae; assay: Antimicrobial activity against ESBL-positive Klebsiella pneumoniae 17049 harboring porin OmpK36V mutant gene by Etest in presence of Tazobactam
[34] = system: Klebsiella pneumoniae; assay: Antimicrobial activity against ESBL-negative Klebsiella pneumoniae 299332 harboring porin OmpK36 gene by Etest in presence of Tazobactam
[35] = system: Klebsiella pneumoniae; assay: Antimicrobial activity against ESBL-positive Klebsiella pneumoniae 16830 harboring porin OmpK36 gene by Etest in presence of Tazobactam
[36] = system: Klebsiella pneumoniae; assay: Antimicrobial activity against ESBL-positive Klebsiella pneumoniae 287942 harboring porin OmpK36 gene by Etest in presence of Tazobactam
[37] = system: Klebsiella pneumoniae; assay: Antimicrobial activity against ESBL-positive Klebsiella pneumoniae 26077 harboring porin OmpK36V mutant gene by Etest in presence of Tazobactam
[38] = system: Klebsiella pneumoniae; assay: Antimicrobial activity against ESBL-positive Klebsiella pneumoniae 25008 by Etest in presence of Tazobactam
[39] = system: Klebsiella pneumoniae; assay: Antimicrobial activity against ESBL-positive Klebsiella pneumoniae 11932 harboring porin OmpK36 gene by Etest in presence of Tazobactam
[40] = system: Klebsiella pneumoniae; assay: Antimicrobial activity against ESBL-positive Klebsiella pneumoniae 6267 harboring porin OmpK36V mutant gene by Etest in presence of Tazobactam
[41] = system: Klebsiella pneumoniae; assay: Antimicrobial activity against ESBL-positive Klebsiella pneumoniae 29459 harboring porin OmpK36 gene by Etest in presence of Tazobactam
[42] = system: Klebsiella pneumoniae; assay: Antimicrobial activity against ESBL-positive Klebsiella pneumoniae 71697 harboring porin OmpK36V mutant gene by Etest in presence of Tazobactam
[43] = system: Klebsiella pneumoniae; assay: Antimicrobial activity against ESBL-positive Klebsiella pneumoniae 29830 harboring porin OmpK36V mutant gene by Etest in presence of Tazobactam
[44] = system: Klebsiella pneumoniae; assay: Antimicrobial activity against ESBL-positive Klebsiella pneumoniae 18260 by Etest in presence of Tazobactam
[45] = system: Klebsiella pneumoniae; assay: Antimicrobial activity against ESBL-positive Klebsiella pneumoniae 19039 harboring porin OmpK36V mutant gene by Etest in presence of Tazobactam
[46] = system: Klebsiella pneumoniae; assay: Antimicrobial activity against ESBL-positive Klebsiella pneumoniae 69928 harboring porin OmpK36V mutant gene by Etest in presence of Tazobactam
[47] = system: Klebsiella pneumoniae; assay: Antimicrobial activity against ESBL-negative Klebsiella pneumoniae 30018 harboring porin OmpK35 gene by Etest in presence of Tazobactam
[48] = system: Klebsiella pneumoniae; assay: Antimicrobial activity against ESBL-positive Klebsiella pneumoniae 31750 harboring porin OmpK36 gene by Etest in presence of Tazobactam
[49] = system: Klebsiella pneumoniae; assay: Antimicrobial activity against ESBL-positive Klebsiella pneumoniae 50748 harboring porin OmpK36 gene by Etest in presence of Tazobactam
[50] = system: Klebsiella pneumoniae; assay: Antimicrobial activity against ESBL-positive Klebsiella pneumoniae 17829 by Etest in presence of Tazobactam

## C[C@@H](O)[C@H]1C(=O)N2C(C(=O)O)=C(S[C@@H]3CN[C@H](C(=O)Nc4cccc(C(=O)O)c4)C3)[C@H](C)[C@H]12 [ERTAPENEM]
[1]
  MIC: 4 µg/mL (≈ 8.41 µM)
[2]
  MIC: 8 µg/mL (≈ 16.8 µM)
[3]
  MIC: 8 µg/mL (≈ 16.8 µM)
[4]
  MIC: 8 µg/mL (≈ 16.8 µM)
[5]
  MIC: 16 µg/mL (≈ 33.6 µM)
[6]
  MIC: 0.016 µg/mL (≈ 0.0336 µM)
[7]
  MIC: 6 µg/mL (≈ 12.6 µM)
[8]
  MIC: 6 µg/mL (≈ 12.6 µM)
[9]
  MIC: 0.023 µg/mL (≈ 0.0484 µM)
[10]
  MIC: 0.125 µg/mL (≈ 0.263 µM)
[11]
  MIC: 128 µg/mL (≈ 269 µM)
[12]
  MIC: 6 µg/mL (≈ 12.6 µM)
[13]
  MIC: 128 µg/mL (≈ 269 µM)
[14]
  MIC: 0.19 µg/mL (≈ 0.4 µM)
[15]
  MIC: 6 µg/mL (≈ 12.6 µM)
[16]
  MIC: 8 µg/mL (≈ 16.8 µM)
[17]
  MIC: 0.094 µg/mL (≈ 0.198 µM)
[18]
  MIC: 8 µg/mL (≈ 16.8 µM)
[19]
  MIC: 16 µg/mL (≈ 33.6 µM)
[20]
  MIC: 0.25 µg/mL (≈ 0.526 µM)
[21]
  MIC: 6 µg/mL (≈ 12.6 µM)
[22]
  MIC: 16 µg/mL (≈ 33.6 µM)
[23]
  MIC: 0.25 µg/mL (≈ 0.526 µM)
[24]
  MIC: 0.125 µg/mL (≈ 0.263 µM)
[25]
  MIC: 6 µg/mL (≈ 12.6 µM)
[26]
  MIC: 0.19 µg/mL (≈ 0.4 µM)

## CCN1CCN(C(=O)N[C@@H](C(=O)N[C@@H]2C(=O)N3[C@@H]2SC(C)(C)[C@@H]3C(=O)O)c2ccccc2)C(=O)C1=O [PIPERACILLIN]
[27]
  MIC: > 256 µg/mL
[28]
  MIC: > 256 µg/mL
[29]
  MIC: > 256 µg/mL
[30]
  MIC: > 256 µg/mL
[31]
  MIC: 32 µg/mL
[32]
  MIC: > 256 µg/mL
[33]
  MIC: > 256 µg/mL
[34]
  MIC: 6 µg/mL
[35]
  MIC: 16 µg/mL
[36]
  MIC: > 256 µg/mL
[37]
  MIC: > 256 µg/mL
[38]
  MIC: > 256 µg/mL
[39]
  MIC: > 256 µg/mL
[40]
  MIC: 12 µg/mL
[41]
  MIC: > 256 µg/mL
[42]
  MIC: > 256 µg/mL
[43]
  MIC: > 256 µg/mL
[44]
  MIC: > 256 µg/mL
[45]
  MIC: > 256 µg/mL
[46]
  MIC: > 256 µg/mL
[47]
  MIC: 3 µg/mL
[48]
  MIC: 8 µg/mL
[49]
  MIC: 12 µg/mL
[50]
  MIC: > 256 µg/mL
